Laboratory results taken from publication PMC9553667, “Pharmacokinetic Analysis of Diosgenin in Rat Plasma by a UPLC-MS/MS Approach” (Journal of Analytical Methods in Chemistry, 2022).
Read-outs that look alike come from different tables or passages of the source.

Experiments:
[1] = format: in vitro ADME, rat; conditions: n = 6; for Measured concentration, autosampler stability: processed rat plasma, autosampler 4°C for 24 h; for Measured concentration, short-term stability / Measured concentration, freeze-thaw stability / Measured concentration, long-term stability: rat plasma; for Measured concentration, short-term stability: 25°C for 8 h; for Measured concentration, long-term stability: −20°C for 30 days
Protocol: Standard working solutions of diosgenin and IS were prepared by diluting stock solutions (100 μg/ml) with methanol. A series of calibration standards and QC working solutions were serially diluted with methanol from the standard solution. The working solutions were diluted with drug-free rat plasma at concentrations of 0.5, 1, 5, 50, 200, 1000, and 1,500 ng/ml. Similarly, the QC samples were made up at 5, 50, and 1,000 ng/ml, and IS was 42 ng/ml. All samples were immediately stored at −20°C.
QC samples in rat plasma at three concentrations were analyzed by assessing the stability of diosgenin under four conditions. Long-term stability was investigated by assaying QC samples kept at −20°C for 30 days. The short-term stability of QC samples was assessed for 8-h storage at 25°C. Freeze-thaw stability was determined by analyzing QC samples after three freeze-thaw cycles (−40°C to 25°C). Postpreparative stability was evaluated after a 24-h placement of QC samples in an autosampler at 4°C after preparation. When the accuracy and the precision were both within ±15% after the four tests, the stabilities were guaranteed.

in vivo = assay: in vivo; design: species or system Male Sprague-Dawley rats; conditions: rat
Protocol: Liquid chromatography was performed using a UPLC system (Waters Corp., Milford, MA, USA) interfaced to a Q-Trap 5500 triple-quadruple mass spectrometer (AB SCIEX, Beijing, China) equipped with an electrospray ionization (ESI) source, as previously described. The isolation was performed on a Waters ACQUITY UPLC BEH C18 rapid resolution high definition column (2.1 × 50 mm, 1.7 μm) at 35°C. The temperature of the UPLC autosampler was 4°C. The mobile phase was mixed with acetonitrile and water (80 : 20, v/v, containing 0.03% formic acid in water). The flow rate was run at 0.3 ml/min. The injection volume was 2 μl, with a total running time of 5 min.
The positive ion multiple reaction monitoring (MRM) mode was used for quantification analysis in the mass analyzers, with the transitions of m/z 415.2⟶271.2 for diosgenin with fragment or voltage of 71.96 V and 295.2⟶277.1 for the IS with fragment or voltage of 120 V. The collision voltages for diosgenin and IS were 23.03 and 25.92 eV, respectively. The other settings were as follows: capillary voltage, 5.5 kV; source temperature, 500°C; curtain gas, 35 Psi; GS1, 50 Psi; GS2, 50 Psi.
Blank plasma samples were obtained from control Sprague-Dawley rats (n = 6). Briefly, 50 μl of the IS solution and 50 μl of plasma were added to a 0.5-ml Eppendorf tube and vortex mixed for 30 s. Methanol-acetonitrile (250 μl; 50 : 50, v/v) was added to the Eppendorf tube, and then, the sample was vortex mixed for 2 min. After centrifuging at 15,000 rpm for 15 min, the supernatants were injected into the UPLC-MS/MS system.
Male Sprague-Dawley rats (n = 12) weighing 180–220 g were supplied by Beijing Vital River Laboratory Animal Technology Co., Ltd. (Beijing, China; license number SCXK2018-0006). According to the ARRIVE guidelines, all experimental rats were kept under appropriate conditions, including proper humidity, temperature, light, diet, and water. Before starting the experiments, the rats were domesticated for 10 days under laboratory conditions to minimize their suffering. All experimental procedures were performed according to the Animal Care and Use Committee of Chengde Medical University (ethical approval no. CDMULAC-20180410016; Chengde, China). The rats were divided into two groups and were orally administered 100 mg/kg diosgenin and ASD (equivalent to 100 mg/kg diosgenin) suspended in a 0.5% w/v CMC–Na aqueous solution.
The caged rats were fasted (water provided ad libitum) for 12 h before the experiment. Before and after single administration of diosgenin, 0.15 ml blood was collected from the inner canthus under 2.5% isoflurane anesthesia in a heparinized blood collection vessel. The blood collection time points were 0.083, 0.25, 0.5, 0.75, 1, 2, 3, 4, 6, 8, 12, 24, 36, 48, and 72 h. Plasma was obtained after centrifugation for 15 min at 15,000 rpm and then stored at –80°C until analysis.
The pharmacokinetic parameters were calculated using noncompartmental pharmacokinetics data analysis software of DAS 3.0 (Drug and Statistics software, Drug Clinical Research Center, Shanghai University of Traditional Chinese Medicine, Shanghai, China). Relative bioavailability (F) was calculated according to the following formula:(1) F%=AUC0⟶∞diosgenin ASD/AUC0⟶∞diosgenin×100%.

[2] = design: method as in PMID 24954725; conditions: rats; cited from earlier work
[3] = design: method as in PMID 23073665, PMID 20671764; conditions: cited from earlier work
[4] = format: in vitro ADME, rat; conditions: –20°C for 30 days, 25°C for 8 h, three freeze-thaw cycles, 4°C in an autosampler for 12 h
[5] = male, Sprague-Dawley, po, 100 mg/kg

C[C@@H]1CC[C@@]2(OC1)O[C@H]1C[C@H]3[C@@H]4CC=C5C[C@@H](O)CC[C@]5(C)[C@H]4CC[C@]3(C)[C@H]1[C@@H]2C [Diosgenin]
Measured concentration, autosampler stability ([1]; indicated 5 ng/ml): 5.32 ± 0.37 ng/mL | Measured concentration, autosampler stability ([1]; indicated 50 ng/ml): 50.59 ± 3.69 ng/mL | Measured concentration, autosampler stability ([1]; indicated 1000 ng/ml): 1001.01 ± 62.63 ng/mL | Measured concentration, short-term stability ([1]; indicated 5 ng/ml): 5.41 ± 0.33 ng/mL | Measured concentration, short-term stability ([1]; indicated 50 ng/ml): 50.23 ± 2.56 ng/mL | Measured concentration, short-term stability ([1]; indicated 1000 ng/ml): 1000.88 ± 44.34 ng/mL | Measured concentration, freeze-thaw stability ([1]; three freeze-thaw cycles (−40°C to 25°C), indicated 5 ng/ml): 5.98 ± 0.35 ng/mL | Measured concentration, freeze-thaw stability ([1]; three freeze-thaw cycles, indicated 50 ng/ml): 51.69 ± 4.36 ng/mL | Measured concentration, freeze-thaw stability ([1]; three freeze-thaw cycles, indicated 1000 ng/ml): 1002.9 ± 54.44 ng/mL | Measured concentration, long-term stability ([1]; indicated 5 ng/ml): 5.99 ± 0.28 ng/mL | Measured concentration, long-term stability ([1]; indicated 50 ng/ml): 50.02 ± 3.72 ng/mL | Measured concentration, long-term stability ([1]; indicated 1000 ng/ml): 1001.65 ± 42.42 ng/mL | CL/F (in vivo; male, Sprague-Dawley, oral, 100 mg/kg diosgenin or equivalent, mean ± SD, n = 6, read-out: CLz/F (converted)): 207 mL/min/kg | Vd/F (in vivo; male, Sprague-Dawley, oral, 100 mg/kg diosgenin or equivalent, mean ± SD, n = 6, read-out: Vz/F): 231 ± 161 L/kg | half-life (in vivo; male, Sprague-Dawley, oral, 100 mg/kg diosgenin or equivalent, mean ± SD, n = 6, read-out: t1/2z (converted)): 740 ± 181 min | Cmax (in vivo; [5]): 480 ± 121 ng/mL | MRT last (in vivo; [5]): 22.8 ± 5.55 h | Tmax (in vivo; [5]): 8.73 ± 5.74 h | AUC0-t (in vivo; po, 100 mg/kg): 9,302.27 ± 5,013.38 μg/l∗h | AUC0-∞ (in vivo; po, 100 mg/kg): 9,598.01 ± 5,151.91 μg/l∗h | Absolute bioavailability [2]: approximately 7% | Aqueous solubility [3]: poor aqueous solubility | Stability in plasma under the storage conditions [4]: remained stable
